Several values for one entry are separate records, joined by “and”; a condition that tells them apart may be missing. Equal values may be shown once.
Experiments:
Assay type in all cases: cell-based
[1] = target: T1, AURKA (MV4-11^AURKA-HiBiT cells) (Homo sapiens, UniProt O14965); experiment: HiBiT assay, AURKA degradation; conditions: for Dmax (maximal degradation) AURKA / DC50: 6 h treatment, MV4-11^AURKA-HiBiT cells; for DC50: read-out: DC50 (half-maximal degradation concentration) AURKA
T1 construct: expressed in transfected cells; host or cells: MV4-11, lentiviral transduction
T1 sequence (O14965 1-403): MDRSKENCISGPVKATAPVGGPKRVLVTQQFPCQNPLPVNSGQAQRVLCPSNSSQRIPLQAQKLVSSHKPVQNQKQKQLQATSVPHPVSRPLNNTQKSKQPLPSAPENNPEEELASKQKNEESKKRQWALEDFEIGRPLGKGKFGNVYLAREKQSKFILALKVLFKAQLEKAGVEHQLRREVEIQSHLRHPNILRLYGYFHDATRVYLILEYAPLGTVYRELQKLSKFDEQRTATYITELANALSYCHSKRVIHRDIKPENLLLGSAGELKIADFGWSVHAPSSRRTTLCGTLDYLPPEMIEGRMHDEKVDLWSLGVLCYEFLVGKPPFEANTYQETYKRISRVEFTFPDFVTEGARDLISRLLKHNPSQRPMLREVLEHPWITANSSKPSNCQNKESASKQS
Procedure, shortened: (§1)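 MV4-11 lines stably expressing HiBiT-tagged AURKA, AURKB or TTK (lentiviral) were treated with serial compound dilutions for the indicated times. Remaining tagged protein was read by lytic HiBiT luminescence, and DC50 was fitted with a four-parameter dose–response equation using concentrations showing sigmoidal behaviour.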

[2] = target: T2, TTK (MV4-11^HiBiT-TTK cells) (Homo sapiens, UniProt P33981); experiment: HiBiT assay, TTK degradation; design: key to Dmax (maximal degradation) TTK: compounds with degradation less than 15% reported as “inactive”; conditions: 6 h treatment, MV4-11^HiBiT-TTK cells; for DC50: read-out: DC50 (half-maximal degradation concentration) TTK
T2 construct: expressed in transfected cells; host or cells: MV4-11, lentiviral transduction (pRRL-PGK-HiBiT entry vector)
T2 sequence (P33981 1-857): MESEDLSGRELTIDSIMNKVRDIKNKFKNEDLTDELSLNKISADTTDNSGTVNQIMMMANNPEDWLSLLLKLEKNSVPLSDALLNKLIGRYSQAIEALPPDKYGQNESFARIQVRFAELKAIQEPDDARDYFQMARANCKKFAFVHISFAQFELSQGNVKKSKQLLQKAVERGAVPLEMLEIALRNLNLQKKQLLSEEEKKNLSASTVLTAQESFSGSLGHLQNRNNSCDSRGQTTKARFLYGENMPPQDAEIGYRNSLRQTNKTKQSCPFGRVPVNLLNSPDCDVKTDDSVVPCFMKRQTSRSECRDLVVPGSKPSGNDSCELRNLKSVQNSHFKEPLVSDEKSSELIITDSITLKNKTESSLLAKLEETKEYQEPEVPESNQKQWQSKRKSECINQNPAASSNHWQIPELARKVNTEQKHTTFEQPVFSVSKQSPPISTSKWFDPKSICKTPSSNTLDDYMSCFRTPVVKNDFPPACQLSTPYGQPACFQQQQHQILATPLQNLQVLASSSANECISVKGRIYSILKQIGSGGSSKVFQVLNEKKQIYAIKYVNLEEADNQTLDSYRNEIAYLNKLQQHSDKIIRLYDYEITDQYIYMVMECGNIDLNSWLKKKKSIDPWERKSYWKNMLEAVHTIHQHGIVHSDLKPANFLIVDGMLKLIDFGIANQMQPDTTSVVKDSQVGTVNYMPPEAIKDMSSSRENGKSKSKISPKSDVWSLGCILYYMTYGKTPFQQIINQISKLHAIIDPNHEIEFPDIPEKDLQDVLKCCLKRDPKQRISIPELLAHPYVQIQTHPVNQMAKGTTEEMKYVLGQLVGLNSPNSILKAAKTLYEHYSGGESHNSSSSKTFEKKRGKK
Procedure, shortened: as §1

AURKB = target: T3, AURKB (Homo sapiens, UniProt Q96GD4); experiment: Immunoblot of AURKB in naive MV4-11 cells; conditions: 6 h, 10 µM
T3 construct: endogenous in cells; host or cells: naive MV4-11
Description: The cells were treated with compounds or vehicle for indicated time points and lysed in RIPA lysis buffer (50 mM HEPES pH 7.9, 140 mM NaCl, 1 mM EDTA, 1% Triton X-100, 0.1% SDS, 0.1% sodium deoxycholate) containing protease and phosphatase inhibitors (Sigma) for 20 min at 4 °C. Cell lysates were cleared by centrifugation, and protein concentration was determined with bicinchoninic acid assay. Equal amounts of protein per sample were separated by Bis-Tris-PAGE and transferred to PVDF membranes (Millipore). The membranes were blocked with 5% (w/v) nonfat dry milk in TBS-T [20 mM Tris–HCl, pH 7.5, 150 mM NaCl, 0.1% (v/v) Tween-20] for 1 h at room temperature and incubated with primary antibody at 4 °C overnight. Visualization was carried out using horseradish peroxidase (HRP)-labeled secondary antibodies and detected using a chemiluminescent HRP substrate (Millipore) in LAS3000 or LAS4000 mini (Fujifilm). Vinculin, GAPDH, or B-actin were used as a loading control. The loading control was probed along with the target antibody by cutting the membrane. For targets with similar molecular weights, the samples were run in duplicate and probed with their respective loading controls, although only one control was shown in the figure for all targets. The signal was quantified using ImageJ or Image Studio Lite against the corresponding loading controls. Antibodies used in this study were as follows: Aurora A/AIK (Cell Signaling Technology, 3092), Aurora B (Bethyl Laboratories, A300–431A), TTK (Santa Cruz Biotechnology, sc-56968), GAPDH (Cell Signaling Technology, 2118), B-Actin (Sigma, A5441), and Vinculin (Sigma, V9131).
α GAPDH α Vinculin α B-Actin
Figure S2: Cellular degradation studies of SF1-based compounds. […]
Immunoblots of TTK and AURKB. Naive MV4-11 cells were treated with indicated concentration of 44 or 47 G)
(E), 18 (F), and 14 or 20 (G) for 6 h and compared with vehicle treated cells. […]
All HiBiT data are represented as a mean ±s.d. from n=2 replicates. […]

T3 sequence (Q96GD4 whole entry): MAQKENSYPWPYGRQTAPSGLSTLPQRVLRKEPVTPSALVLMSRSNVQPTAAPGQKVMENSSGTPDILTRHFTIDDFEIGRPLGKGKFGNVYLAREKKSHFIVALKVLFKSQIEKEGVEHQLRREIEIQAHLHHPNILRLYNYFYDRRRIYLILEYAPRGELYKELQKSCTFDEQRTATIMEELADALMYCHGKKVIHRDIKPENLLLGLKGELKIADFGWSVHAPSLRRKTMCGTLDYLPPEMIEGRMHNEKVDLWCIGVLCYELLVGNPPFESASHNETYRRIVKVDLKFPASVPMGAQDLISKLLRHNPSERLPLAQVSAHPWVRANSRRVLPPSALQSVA

Row | SMILES | Dmax (maximal degradation) AURKA [1] | DC50 [1] | efficiency of AURKA degradation (Dmax) relative to AURKB and TTK ([1]; HiBiT, 6 h) | selectivity of AURKA degradation (DC50) relative to AURKB and TTK ([1]; HiBiT, 6 h) | Dmax (maximal degradation) TTK [2] | DC50 [2] [nM] | relative AURKB level (immunoblot quantification, vehicle = 1.00) (AURKB) | DC50 (half-maximal degradation concentration) TTK [2]
1 | CC(C)S(=O)(=O)c1ccccc1Nc1nc(Nc2ccc(N3CCN(C(=O)CNC(=O)CCCC(=O)Nc4cccc5c4C(=O)N(C4CCC(=O)NC4=O)C5=O)CC3)cc2)nc2[nH]cnc12 (centres unmarked) [Compound 20] | 71% and 70.70% | 68 nM and 67.7 nM | 1.5–2.4 times | 3.7–4.2 fold | 48.33% | 281 | – | –
2 | CC(C)S(=O)(=O)c1ccccc1Nc1nc(Nc2ccc(N3CCN(C(=O)CCCC(=O)Nc4cccc5c4C(=O)N(C4CCC(=O)NC4=O)C5=O)CC3)cc2)nc2[nH]cnc12 (centres unmarked) [Compound 14] | 50.10% | 46 nM | – | – | 28.50% | 396 | 0.87 | –
3 | Cc1ncsc1-c1ccc(CNC(=O)[C@@H]2C[C@@H](O)CN2C(=O)[C@@H](NC(=O)CCCC(=O)N2CCN(c3ccc(Nc4nc(Nc5ccccc5S(=O)(=O)C(C)C)c5nc[nH]c5n4)cc3)CC2)C(C)(C)C)cc1 [Compound 44] | 35.20% | 1700 nM | – | – | inactive | – | 0.79 | – (compounds with degradation less than 25% were not calculated and reported as “–”)
4 | Cc1ncsc1-c1ccc(CNC(=O)[C@@H]2C[C@@H](O)CN2C(=O)[C@@H](NC(=O)COCCOCC(=O)N2CCN(c3ccc(Nc4nc(Nc5ccccc5S(=O)(=O)C(C)C)c5nc[nH]c5n4)cc3)CC2)C(C)(C)C)cc1 [Compound 49] | 38.00% | 814 nM | – | – | 47.40% | 5710 | – | –
